A melting point compilation (Tetko et al.; mined from patent text by program, amines drawn as free bases though some values may be those of a salt)

SMILES | melting point
Cc1cc2c(c(C)c1C)C(c1ccc(C(C)C)cc1)CO2 (stereo not drawn) | 70 to 71 °C
CN(C)C(=Cc1ccccc1[N+](=O)[O-])C(=O)CBr | 125 to 127 °C
CC(C)(C)N1C[C@H](O)C[C@H]1C(=O)NC(=O)OCc1ccccc1 | 128 to 130 °C
CC(C)Nc1nc2cc(Cl)c(Cl)cc2n1[C@H]1O[C@@H](C)[C@H](O)[C@@H]1O | 103 to 105 °C
CN(Cc1ccccc1)C(=O)Nc1ccc(CN2C(=O)C3CCCC3N(C(=O)CN3C(=O)c4ccccc4C3=O)c3ccccc32)cc1 (stereo not drawn) | 156 to 158 °C
COc1ccc(S(=O)(=O)Cl)cc1N1CCN(C(=O)C(F)(F)F)CC1 | 125 to 127 °C
O=CC(=Cc1ccc([N+](=O)[O-])s1)c1ccc(Br)cc1 | 105 to 108 °C
COc1ccc(C2(O)c3cccc(O)c3C(=O)c3c(O)cccc32)cc1 | 172 to 173 °C
c1ccc(OCCSCc2nnc(-c3ccc(OCCCCN4CCCCC4)cc3)o2)cc1 | 57 to 62 °C
COc1cc2c(cc1OC)C1c3ccccc3CCN1C2 (stereo not drawn) | 186 °C
CSCOC1CCC2C3CCC4=CC(=O)C=CC4(C)C3(F)C(O)CC12C (stereo not drawn) | 224 to 225 °C
CNCCOc1ccc(C(=C(CCO)c2ccccc2)c2ccccc2)cc1 | 134 to 139 °C
CC(C)Cn1c(CNC(=O)OC(C)(C)C)c(-c2ccccc2)c2cc(CO)ccc2c1=O | 169 to 170 °C
Nc1nc(C(=O)N2CCN(Cc3ccc4c(c3)OCO4)CC2)c(-c2ccncc2)s1 | 216 to 217 °C
COC(=O)c1ccc(C)c(-n2c(C)cc(OCc3ccc(F)cc3CNC(=O)Nc3cc(C(C)(C)C)nn3-c3ccc(O)cc3)c(Cl)c2=O)c1 | 188 to 190 °C
C=CCOc1cc(C(=O)CCCCCCCCCCCCC)c(O)c(C)c1C | 65 to 66 °C
CCCCCCCCOc1ccc(-c2ccc(-c3ccc4c(c3)C(CC)(CC)c3cc(-c5ccc(-c6ccc(OCCCCCCCC)cc6)cc5)ccc3-4)cc2)cc1 | 146 °C
CCCC(=O)N(Cc1ccc(-c2ccccc2-c2nnn[nH]2)cc1)C(C)(C)C(=O)O | 187 to 189 °C

Results, then the compound that gave them:

melting point | SMILES
235 to 237 °C | CCCSC1(SCCC)CCC2C3CCC4=CC(=O)C=CC4(C)C3(F)C(O)CC21C (stereo not drawn)
175 to 177 °C | O=C(CCl)c1ccc2c(c1)Cc1cc(C(=O)CCl)ccc1S2
68 to 70 °C | Cc1cc(F)c(F)cc1O
> 340 °C | Cc1c(Br)cc2[nH]c(=O)c(=O)[nH]c2c1[N+](=O)[O-]
129 to 133 °C | CC(F)=C1CCC2C3CC=C4CC(O)CCC4(C)C3CCC12C (stereo not drawn)
108 to 109 °C | Cc1cc(S(=O)(=O)NC2CCCCC2)c2c(C)ccc(C(C)C)cc1-2
120 °C | Cc1ncc(CCC(=O)O)s1
162 to 163 °C | Cc1ccc(-c2ccc3c(c2)C=C(C(=O)Nc2ccc(CN(C)C4CCOCC4)cc2)CCO3)cc1
172 to 174 °C | N#Cc1cc(-c2ccccc2)[nH]c1Sc1ccncc1
152 to 153 °C | CC(C)(C)OC(=O)NC(CF)C(F)CN1C(=O)c2ccccc2C1=O (stereo not drawn)
160 to 161 °C | COC(=O)c1nc2c(c(-c3ccccc3)nn2-c2ccccc2)c(N)c1C(=S)OC
131 to 135 °C | Cc1ccc(S(=O)(=O)NC(=O)C(C)(NC=O)C(C)C)cc1 (stereo not drawn)
218 to 221 °C | Fc1cccc(Cn2ncc3cc(Nc4ncnc5cnc(F)cc45)ccc32)c1
176 °C | O=C(O)C(c1ccc2c(c1)OCO2)n1nc(C2CC2)cc(-c2ccccc2)c1=O (stereo not drawn)
177 to 179 °C | CCC(N)C1CCN(c2c(F)cc3c(=O)c(C(=O)O)cn(C4CC4)c3c2F)C1 (stereo not drawn)
138 to 142 °C | CC12CCC(C(=NO)C1=NN)C(C)(C)O2 (stereo not drawn)
246 to 247 °C | CCCCOc1nc(N)c2[nH]c(=O)n(CCS(=O)(=O)c3cccc(CC(=O)OC)c3)c2n1
164 to 167 °C | Cc1ccc(N)cc1Nc1nccc(-c2cncnc2)n1
132 to 134 °C | Cc1c(CNCC2CCOCC2)n(C)c2c(F)c(NC(=O)c3ccc(OC[C@@H]4CCCO4)cc3)ccc12
195 to 196 °C | COc1cc2nc(S(=O)Cc3cccn4ccnc34)[nH]c2cc1OC (stereo not drawn)
